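Interpolation was linear, between the two tested concentrations surrounding the appropriate level; five concentrations were tested over 48 hours in 96-well plates. Abbreviation: GI50, concentration required for 50% inhibition of growth.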 Active and inactive are the calls of the source. Cut-off read from the data, not from the text of the source: active = GI50 up to about 1.1 µM and inactive = higher.
Columns and labels:
Test in all cases: NCI tumour cell line growth inhibition, 48 h
NCI-H460 = test system: NCI-H460
HCT-15 = test system: HCT-15
LOX IMVI = test system: LOX IMVI
SR = test system: SR
DU-145 = test system: DU-145
SK-OV-3 = test system: SK-OV-3
U-251 = test system: U-251
PC-3 = test system: PC-3
HL-60 = test system: HL-60
SF-539 = test system: SF-539
MCF7 = test system: MCF7
SK-MEL-28 = test system: SK-MEL-28
SF-295 = test system: SF-295
RXF 393 = test system: RXF 393
RPMI-8226 = test system: RPMI-8226
T47D = test system: T47D
786-0 = test system: 786-0
MDA-N = test system: MDA-N
HCT-116 = test system: HCT-116
SF-268 = test system: SF-268
HCC 2998 = test system: HCC 2998
NCI-H226 = test system: NCI-H226
SN12C = test system: SN12C
KM12 = test system: KM12
SNB-19 = test system: SNB-19
EKVX = test system: EKVX
Hs-578T = test system: Hs-578T
HOP-62 = test system: HOP-62
SK-MEL-5 = test system: SK-MEL-5
CAKI-1 = test system: CAKI-1
A549 = test system: A549
UACC-62 = test system: UACC-62
HOP-92 = test system: HOP-92
SW-620 = test system: SW-620
K562 = test system: K562
HT-29 = test system: HT-29
ACHN = test system: ACHN
MDA-MB-435 = test system: MDA-MB-435
IGROV-1 = test system: IGROV-1
Malme-3M = test system: Malme-3M
SNB-75 = test system: SNB-75
NCI-H522 = test system: NCI-H522
TK-10 = test system: TK-10
COLO 205 = test system: COLO 205
NCI-H23 = test system: NCI-H23
NCI/ADR-RES = test system: NCI/ADR-RES
UACC-257 = test system: UACC-257
A498 = test system: A498
SK-MEL-2 = test system: SK-MEL-2
M14 = test system: M14
OVCAR-5 = test system: OVCAR-5
OVCAR-8 = test system: OVCAR-8
OVCAR-4 = test system: OVCAR-4
UO-31 = test system: UO-31
OVCAR-3 = test system: OVCAR-3
MDA-MB-231 = test system: MDA-MB-231
CCRF-CEM = test system: CCRF-CEM
MOLT-4 = test system: MOLT-4

`O=C1C(=O)C(CCCO)(CCCO)CCCCCCCCC1(CCCO)CCCO` was tested, and the GI50 (NCI-H460) was > 100 µM (inactive), the GI50 (HCT-15) was > 100 µM and the GI50 (LOX IMVI) was 64.7 µM (inactive). The GI50 (SR) was 18.6 µM (inactive), the GI50 (DU-145) was 75.7 µM (inactive) and the GI50 (SK-OV-3) was > 100 µM (inactive). For the same compound, the GI50 (U-251) was 66.5 µM (inactive), the GI50 (PC-3) was 55.3 µM (inactive) and the GI50 (HL-60) was 12.4 µM (inactive). The GI50 (SF-539) was 80.4 µM (inactive), the GI50 (MCF7) was 55.1 µM (inactive) and the GI50 (SK-MEL-28) was 41.9 µM (inactive). For the same compound, the GI50 (SF-295) was > 100 µM (inactive), the GI50 (RXF 393) was 17.3 µM (inactive) and the GI50 (RPMI-8226) was < 0.01 µM (active). For the same compound, the GI50 (T47D) was 87.7 µM (inactive), the GI50 (786-0) was > 100 µM (inactive) and the GI50 (MDA-N) was 86.9 µM (inactive). For the same compound, the GI50 (HCT-116) was 32 µM (inactive), the GI50 (SF-268) was 38.1 µM (inactive) and the GI50 (HCC 2998) was > 100 µM (inactive). The GI50 (NCI-H226) was > 100 µM (inactive), the GI50 (SN12C) was > 100 µM (inactive) and the GI50 (KM12) was 78.5 µM (inactive). For the same compound, the GI50 (SNB-19) was 61.5 µM (inactive), the GI50 (EKVX) was > 100 µM (inactive) and the GI50 (Hs-578T) was 57.7 µM (inactive). The GI50 (HOP-62) was > 100 µM (inactive), the GI50 (SK-MEL-5) was 41.1 µM (inactive) and the GI50 (CAKI-1) was > 100 µM (inactive). The GI50 (A549) was 45.8 µM (inactive), the GI50 (UACC-62) was 88.1 µM (inactive) and the GI50 (HOP-92) was 39.7 µM (inactive). For the same compound, the GI50 (SW-620) was > 100 µM (inactive), the GI50 (K562) was 23.7 µM (inactive) and the GI50 (HT-29) was 67 µM (inactive). The GI50 (ACHN) was > 100 µM (inactive), the GI50 (MDA-MB-435) was 61.2 µM (inactive) and the GI50 (IGROV-1) was 41.3 µM (inactive). For the same compound, the GI50 (Malme-3M) was > 100 µM (inactive), the GI50 (SNB-75) was 50.1 µM (inactive) and the GI50 (NCI-H522) was 48.4 µM (inactive). For the same compound, the GI50 (TK-10) was 87.3 µM (inactive), the GI50 (COLO 205) was > 100 µM (inactive) and the GI50 (NCI-H23) was > 100 µM (inactive). For the same compound, the GI50 (NCI/ADR-RES) was > 100 µM (inactive), the GI50 (UACC-257) was 73.8 µM (inactive) and the GI50 (A498) was > 100 µM (inactive). The GI50 (SK-MEL-2) was 46.8 µM (inactive), the GI50 (M14) was 37.4 µM (inactive) and the GI50 (OVCAR-5) was > 100 µM (inactive). The GI50 (OVCAR-8) was > 100 µM (inactive), the GI50 (OVCAR-4) was > 100 µM (inactive) and the GI50 (UO-31) was 37.4 µM (inactive). For the same compound, the GI50 (OVCAR-3) was 32.2 µM (inactive).
For `COc1cc(OC)c(NC2=NCCO2)cc1Cl`, the GI50 (NCI-H460) was 21.2 µM (inactive), the GI50 (HCT-15) was 33.9 µM and the GI50 (LOX IMVI) was 31.4 µM (inactive). For the same compound, the GI50 (SR) was 27.4 µM (inactive), the GI50 (DU-145) was 38.2 µM (inactive) and the GI50 (U-251) was 39.7 µM (inactive). The GI50 (PC-3) was 24.3 µM (inactive), the GI50 (HL-60) was 43.3 µM (inactive) and the GI50 (SF-539) was 25.5 µM (inactive). For the same compound, the GI50 (MDA-MB-231) was 26.1 µM (inactive), the GI50 (MCF7) was 49.1 µM (inactive) and the GI50 (SK-MEL-28) was 44 µM (inactive). The GI50 (SF-295) was 82.8 µM (inactive), the GI50 (RXF 393) was 46.1 µM (inactive) and the GI50 (RPMI-8226) was 46.8 µM (inactive). For the same compound, the GI50 (T47D) was 54.5 µM (inactive), the GI50 (786-0) was 30.1 µM (inactive) and the GI50 (MDA-N) was 17.1 µM (inactive). For the same compound, the GI50 (HCT-116) was 34.4 µM (inactive), the GI50 (SF-268) was 39.7 µM (inactive) and the GI50 (HCC 2998) was 23.8 µM (inactive). The GI50 (NCI-H226) was 25.7 µM (inactive), the GI50 (SN12C) was 44.4 µM (inactive) and the GI50 (KM12) was 16.7 µM (inactive). The GI50 (SNB-19) was > 100 µM (inactive), the GI50 (EKVX) was 61.9 µM (inactive) and the GI50 (Hs-578T) was 61.7 µM (inactive). The GI50 (HOP-62) was 49.7 µM (inactive), the GI50 (SK-MEL-5) was 23.1 µM (inactive) and the GI50 (A549) was 46.3 µM (inactive). For the same compound, the GI50 (UACC-62) was 60.7 µM (inactive), the GI50 (SW-620) was > 100 µM (inactive) and the GI50 (K562) was 83.9 µM (inactive). For the same compound, the GI50 (HT-29) was 23.5 µM (inactive), the GI50 (ACHN) was 64.7 µM (inactive) and the GI50 (MDA-MB-435) was 20.1 µM (inactive). The GI50 (IGROV-1) was 38 µM (inactive), the GI50 (Malme-3M) was 68.7 µM (inactive) and the GI50 (CCRF-CEM) was 54 µM (inactive). For the same compound, the GI50 (SNB-75) was 35.6 µM (inactive), the GI50 (NCI-H522) was 32.8 µM (inactive) and the GI50 (TK-10) was 60.3 µM (inactive). For the same compound, the GI50 (COLO 205) was 18.8 µM (inactive), the GI50 (NCI-H23) was 22.2 µM (inactive) and the GI50 (NCI/ADR-RES) was 32.4 µM (inactive). The GI50 (UACC-257) was 31 µM (inactive), the GI50 (A498) was 32.7 µM (inactive) and the GI50 (SK-MEL-2) was 17.3 µM (inactive). The GI50 (M14) was 31.3 µM (inactive), the GI50 (OVCAR-5) was 53.8 µM (inactive) and the GI50 (OVCAR-8) was 83 µM (inactive). The GI50 (OVCAR-4) was > 100 µM (inactive), the GI50 (UO-31) was 91.6 µM (inactive) and the GI50 (OVCAR-3) was 43.6 µM (inactive). The GI50 (MOLT-4) was 44.2 µM (inactive).
With `O=c1c2ccccc2nc2n1CCc1c-2[nH]c2ccccc12` [RUTAECARPINE] the GI50 (HCT-15) was > 10 µM, the GI50 (SR) was 24.4 µM (inactive) and the GI50 (DU-145) was 17.4 µM (inactive). The GI50 (SK-OV-3) was 19.4 µM (inactive), the GI50 (U-251) was 15.3 µM (inactive) and the GI50 (PC-3) was 22.2 µM (inactive). The GI50 (HL-60) was 24.2 µM (inactive), the GI50 (SK-MEL-28) was 25.2 µM (inactive) and the GI50 (SF-295) was 14.1 µM (inactive). For the same compound, the GI50 (RXF 393) was 18.8 µM (inactive), the GI50 (RPMI-8226) was 15 µM (inactive) and the GI50 (T47D) was 15.7 µM (inactive). The GI50 (MDA-N) was 15.2 µM (inactive), the GI50 (HCT-116) was 17.5 µM (inactive) and the GI50 (SF-268) was 26.8 µM (inactive). The GI50 (KM12) was > 10 µM (inactive), the GI50 (SNB-19) was 15.8 µM (inactive) and the GI50 (EKVX) was 20.7 µM (inactive). The GI50 (SK-MEL-5) was 14.7 µM (inactive), the GI50 (CAKI-1) was 9.2 µM (inactive) and the GI50 (HOP-92) was 15.6 µM (inactive). For the same compound, the GI50 (SW-620) was 18.6 µM (inactive), the GI50 (K562) was 25.2 µM (inactive) and the GI50 (IGROV-1) was 19.8 µM (inactive). The GI50 (Malme-3M) was 28.8 µM (inactive), the GI50 (SNB-75) was 18.9 µM (inactive) and the GI50 (TK-10) was 29.6 µM (inactive). The GI50 (COLO 205) was 21.8 µM (inactive), the GI50 (NCI-H23) was 17.8 µM (inactive) and the GI50 (NCI/ADR-RES) was 19.5 µM (inactive). The GI50 (M14) was 17.1 µM (inactive), the GI50 (OVCAR-5) was 17.4 µM (inactive) and the GI50 (OVCAR-8) was 26.2 µM (inactive). The GI50 (UO-31) was 14.9 µM (inactive) and the GI50 (MOLT-4) was 19.9 µM (inactive).
